IC50 data for eleven compounds are collected here from patent US10077265B2, “Substituted oxopyridine derivatives” (BAYER PHARMA AKTIENGESELLSCHAFT, priority 2014, dated 2018).

The assay addresses human plasma kallikrein (Homo sapiens (Human), UniProt P03952). The assay can be described thus: Determination of the plasma kallikrein activity (fluorogenic peptide substrate). The settings on record: plasma kallikrein from Kordia, substrate H-Pro-Phe-Arg-AMC, 30 min at 22° C. In kind it is biochemical. Here is the method:
To determine the plasma kallikrein inhibition of the substances according to the invention, a biochemical test system is used which utilizes the reaction of a peptidic plasma kallikrein substrate to determine the enzymatic activity of human plasma kallikrein. Here, plasma kallikrein cleaves from the peptic plasma kallikrein substrate the C-terminal aminomethylcoumarin (AMC), the fluorescence of which is measured. The determinations are carried out in microtitre plates.
1 μl of the diluted substance solutions is placed into each of the wells of white microtitre plates from Greiner (384 wells). 20 μl of assay buffer (50 mM Tris/HCl pH 7.4; 100 mM sodium chloride solution; 5 mM of calcium chloride solution; 0.1% of bovine serum albumin) and 20 μl of plasma kallikrein from Kordia (0.6 nM in assay buffer) are then added successively. After 15 min of incubation, the enzyme reaction is started by addition of 20 μl of the substrate H-Pro-Phe-Arg-AMC dissolved in assay buffer (10 μM in assay buffer) from Bachem, the mixture is incubated at room temperature (22° C.) for 30 min and fluorescence is then measured (excitation: 360 nm, emission: 460 nm). The measured emissions of the test batches with test substance are compared to those of control batches without test substance (only dimethyl sulphoxide instead of test substance in dimethyl sulphoxide), and IC50 values are calculated from the concentration/activity relationships.

human plasma kallikrein, sequence (P03952 391-638): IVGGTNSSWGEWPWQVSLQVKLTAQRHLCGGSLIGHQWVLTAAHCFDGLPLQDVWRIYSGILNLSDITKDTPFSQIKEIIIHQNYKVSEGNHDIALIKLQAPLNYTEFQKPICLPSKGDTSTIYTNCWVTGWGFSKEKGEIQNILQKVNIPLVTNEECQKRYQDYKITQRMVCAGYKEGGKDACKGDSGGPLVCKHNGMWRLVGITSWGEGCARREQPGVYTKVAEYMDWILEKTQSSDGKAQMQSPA
human plasma kallikrein, sequence (P03952 20-390 partner): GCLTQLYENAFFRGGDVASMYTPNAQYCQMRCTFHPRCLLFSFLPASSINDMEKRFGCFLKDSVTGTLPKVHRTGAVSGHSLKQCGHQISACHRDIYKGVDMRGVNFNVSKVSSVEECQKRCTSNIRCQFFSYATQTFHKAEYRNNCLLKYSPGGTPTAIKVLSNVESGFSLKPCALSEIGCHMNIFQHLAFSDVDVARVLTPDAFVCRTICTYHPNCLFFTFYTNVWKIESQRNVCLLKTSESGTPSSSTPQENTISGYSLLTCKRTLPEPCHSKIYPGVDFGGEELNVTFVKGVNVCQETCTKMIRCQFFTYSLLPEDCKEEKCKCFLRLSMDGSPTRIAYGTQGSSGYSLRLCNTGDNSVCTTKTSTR

With `COCCC(C(=O)Nc1ccn2ncc(C(=O)O)c2c1)n1cc(OC)c(-c2cc(Cl)ccc2C#N)cc1=O` (racemic) [Example 2, 5-({2-[4-(5-Chloro-2-cyanophenyl)-5-methoxy-2-oxopyridin-1(2H)-yl]-4-methoxybutanoyl}-amino)pyrazolo[1,5-a]pyridine-3-carboxylic acid (racemate)], the 50% inhibitory concentration (IC50) came to 2.5 nM.

As to `CCC(C(=O)Nc1ccn2ncc(C(=O)O)c2c1)n1cc(OC)c(-c2cc(Cl)ccc2C#N)cc1=O` (racemic) [Example 1, 5-({2-[4-(5-Chloro-2-cyanophenyl)-5-methoxy-2-oxopyridin-1(2H)-yl]butanoyl}amino)pyrazolo-[1,5-a]pyridine-3-carboxylic acid (racemate)], inhibition was half-maximal at 5 nM (IC50).

`COCCC(C(=O)Nc1ccn2ncc(C(=O)NCC(F)(F)F)c2c1)n1cc(OC)c(-c2cc(Cl)ccc2C#N)cc1=O` (racemic) [Example 12, 5-({2-[4-(5-Chloro-2-cyanophenyl)-5-methoxy-2-oxopyridin-1(2H)-yl]-4-methoxybutanoyl}amino)-N-(2,2,2-trifluoroethyl)pyrazolo[1,5-a]pyridine-3-carboxamide (racemate)] came in with an IC50 of 5 nM.

Regarding `COCCC(C(=O)Nc1ccn2ncc(C(=O)NCCO)c2c1)n1cc(OC)c(-c2cc(Cl)ccc2C#N)cc1=O` (racemic) [Example 14, 5-({2-[4-(5-Chloro-2-cyanophenyl)-5-methoxy-2-oxopyridin-1(2H)-yl]-4-methoxybutanoyl}amino)-N-(2-hydroxyethyl)pyrazolo[1,5-a]pyridine-3-carboxamide (racemate)], the IC50 is 3.8 nM.

As to `COCCNC(=O)c1cnn2ccc(NC(=O)C(CCOC)n3cc(OC)c(-c4cc(Cl)ccc4C#N)cc3=O)cc12` (racemic) [Example 8, 5-({2-[4-(5-Chloro-2-cyanophenyl)-5-methoxy-2-oxopyridin-1(2H)-yl]-4-methoxybutanoyl}amino)-N-(2-methoxyethyl)pyrazolo[1,5-a]pyridine-3-carboxamide (racemate)], the half-maximal inhibitory concentration (IC50) stood at 3.8 nM.

Turning to `COCCC(C(=O)Nc1ccn2ncc(C(=O)NCCOC(F)(F)F)c2c1)n1cc(OC)c(-c2cc(Cl)ccc2C#N)cc1=O` (racemic) [Example 10, 5-({2-[4-(5-Chloro-2-cyanophenyl)-5-methoxy-2-oxopyridin-1(2H)-yl]-4-methoxybutanoyl}amino)-N-[2-(trifluoromethoxy)ethyl]pyrazolo[1,5-a]pyridine-3-carboxamide (racemate)], the IC50 was 9.5 nM.

Compound `COCCC(C(=O)Nc1ccn2ncc(C(=O)N(C)C)c2c1)n1cc(OC)c(-c2cc(Cl)ccc2C#N)cc1=O` (racemic) [Example 6, 5-({2-[4-(5-Chloro-2-cyanophenyl)-5-methoxy-2-oxopyridin-1(2H)-yl]-4-methoxybutanoyl}amino)-N,N-dimethylpyrazolo[1,5-a]pyridine-3-carboxamide (racemate)] came in with a 50% inhibitory concentration (IC50) of 18 nM.

Take `COCCCNC(=O)c1cnn2ccc(NC(=O)C(CCOC)n3cc(OC)c(-c4cc(Cl)ccc4C#N)cc3=O)cc12` (racemic) [Example 9, 5-({2-[4-(5-Chloro-2-cyanophenyl)-5-methoxy-2-oxopyridin-1(2H)-yl]-4-methoxybutanoyl}amino)-N-(3-methoxypropyl)pyrazolo[1,5-a]pyridine-3-carboxamide (racemate)]: the half-inhibitory concentration (IC50) is 3 nM.

In the case of `COCCC(C(=O)Nc1ccn2ncc(C(=O)NCCC(F)(F)F)c2c1)n1cc(OC)c(-c2cc(Cl)ccc2C#N)cc1=O` (racemic) [Example 11, 5-({2-[4-(5-Chloro-2-cyanophenyl)-5-methoxy-2-oxopyridin-1(2H)-yl]-4-methoxybutanoyl}amino)-N-(3,3,3-trifluoropropyl)pyrazolo[1,5-a]pyridine-3-carboxamide (racemate)], the IC50 turned out to be 6.6 nM.

For `COCCC(C(=O)Nc1ccn2ncc(C(=O)NCCCO)c2c1)n1cc(OC)c(-c2cc(Cl)ccc2C#N)cc1=O` (racemic) [Example 13, 5-({2-[4-(5-Chloro-2-cyanophenyl)-5-methoxy-2-oxopyridin-1(2H)-yl]-4-methoxybutanoyl}amino)-N-(3-hydroxypropyl)pyrazolo[1,5-a]pyridine-3-carboxamide (racemate)], half-maximal inhibition (IC50) was put at 5.2 nM.

`CCCNC(=O)c1cnn2ccc(NC(=O)C(CCOC)n3cc(OC)c(-c4cc(Cl)ccc4C#N)cc3=O)cc12` (racemic) [Example 7, 5-({2-[4-(5-Chloro-2-cyanophenyl)-5-methoxy-2-oxopyridin-1(2H)-yl]-4-methoxybutanoyl}amino)-N-propylpyrazolo[1,5-a]pyridine-3-carboxamide (racemate)] showed an IC50 of 6.4 nM.
